Assay type in all cases: cell-based, human
One experiment relates to MDA-MB-231 cells. In words: apoptosis by flow cytometry (FITC-Annexin V and propidium iodide), MDA-MB-231. The following applies: GI50, 24 hours. The method, then: Apoptosis was analyzed by flow cytometry using FITC-Annexin V and propidium iodide. The effect of compounds was analyzed after 24 hours treatment using the concentration of GI50. Histograms represent one of two independent experiments; quantification of cells in apoptosis represents the mean±S.E.M. of two independent experiments.
(In general: In flow cytometry, cells or beads pass a laser one at a time.)

For the next experiment, the system named is HCT116 p53^+/+. Briefly: Western blot of p53 and p53-target proteins, PARP cleavage, HCT116 p53^+/+. As to the method: FIG. 2 illustrates that SLMP53-1 increases the levels of proteins encoded by p53 target genes (MDM2, p21, PUMA and BAX), and leads to PARP cleavage in colon carcinoma cells with wt p53 (HCT116 p53^+/+), but not in colon carcinoma cells without wt p53 (HCT116 p53^−/−). Western blot analysis was performed for human colon carcinoma cells after 16 (B, D, E) and 24 (A, C, F) hours treatment with 15.5 μM of SLMP53-1, 135 nM doxorubicin (DOXO; positive control) or DMSO only. The protein expression levels were evaluated by quantification of Western Blot band intensity (with Bio-Profile Bio-1D++ software) using GAPDH as loading control.
A general note: A western blot detects proteins with antibodies after separation by electrophoresis.

For another experiment, the system named is HCT116 p53^+/+ cells. Briefly: sensitization to etoposide and doxorubicin, SRB assay, HCT116 p53^+/+. As to the method:
FIG. 5 illustrates that SLMP53-1 sensitizes colon carcinoma tumor cells with wt p53 (HCT116 p53^+/+) to the effects of etoposide and doxorubicin. HCT116 p53^+/+ cells were treated for 48 hours with increasing concentrations of etoposide (0.38 to 3.00 μM) or doxorubicin (9.38 to 75.0 nM) in the presence of a very low concentration (between GI5 to GI10; 4 μM) of SLMP53-1 or DMSO only. The effect of the compounds on cell growth was analyzed following 48 hours incubation, using the sulforhodamine B (SRB) assay. Results are mean±SEM of three to four independent experiments.
It was also investigated if SLMP53-1 increased the sensitivity of HCT116 p53^+/+ cells to the effects of various concentrations of the conventional chemotherapeutic drugs, etoposide (0.38 to 3.00 μM) and doxorubicin (9.38 to 75 nM). For that, a low concentration of SLMP53-1 (approximately the GI5 to GI10 concentration; 4 μM; without significant anti-proliferative effect on tumor cells) was used.
(Sulforhodamine B stains cellular protein and so reports cell mass.)

For another experiment, the system named is HCT116 p53^−/−. Briefly: SRB growth inhibition assay in HCT116 p53^−/− colon carcinoma cells. The following applies: Homo sapiens, HCT-116, 48 hours incubation, mean±S.E.M. As to the method:
Tumor cells were plated at 5.0×10^3 cells/well in 96-well plates and incubated for 24 hours. Cells were then exposed to serial dilutions of SLMP53-1, CP-31398 or PRIMA-1 (from 1.85 to 150 μM). The effect of the compounds was analyzed following 48 hours incubation, using the sulforhodamine B (SRB) assay. The solvent DMSO corresponding to the maximum concentration used in these assays (0.025%) was included as control. The GI50 value, the concentration of compound that causes 50% growth inhibition, was calculated for the tested compounds. Results are the mean±S.E.M. of three independent experiments.

Entries after “also recorded” stand apart in the source; their conditions may differ.

On to `C[C@]12OC[C@H](Cc3c[nH]c4ccccc34)N1C(=O)c1ccccc12` [SLMP53-1], for which, in the experiment on MDA-MB-231 cells, the apoptosis entry is on record as “induces late apoptosis; also recorded: apoptotic cell death”. Moreover, the “protein levels of p53 and of MDM2, p21, PUMA and BAX” value with HCT116 p53^+/+ (15.5 μM (GI50), 16 and 24 hours) is on record as “increased”. Also, the PARP cleavage result in the experiment with HCT116 p53^+/+ (24 hours) is “led to PARP cleavage”. Also, the “decrease of tumor cell growth” value in the experiment with HCT116 p53^+/+ cells (9.38 nM doxorubicin in the presence of 4 μM of SLMP53-1, HCT116 p53^+/+) was determined as 15%. In the experiment on HCT116 p53^+/+ cells (4 μM SLMP53-1, etoposide 0.75 and 3.00 μM, doxorubicin 9.38, 37.5 and 75 nM, 48 hours), the etoposide/doxorubicin-induced growth inhibition result is “increased”. The same compound yielded a GI50 in the experiment with HCT116 p53^−/− of 34 ± 3.5 µM.

For orientation: GI50 means the concentration at which growth is held to half of that of the control. Low readings indicate more potent growth inhibition, high ones less potent growth inhibition.
